Laboratory results from publication PMC3605511, “Tumor P-Glycoprotein Correlates with Efficacy of PF-3758309 in in vitro and in vivo Models of Colorectal Cancer” (Frontiers in Pharmacology, 2013).
Where “and” joins values, the source holds several entries; their conditions need not be identical. Equal entries are not always repeated. Where two headings read alike, the source gives them in different places.

Experiments:
SW48 cell line xenograft = assay: CRC cell line xenograft efficacy, SW48; type: in vivo, mice; settings: 25 mg/kg orally twice daily, 14–28 days, end of study tumor volumes
Experimental: For cell line xenografts, CRC cells were harvested in exponential phase growth and resuspended in a 1:1 mixture of serum-free RPMI 1640 and Matrigel (BD Biosciences). Five to ten million cells per mouse were injected subcutaneously into the flank using a 23-gauge needle. Mice were monitored daily for signs of toxicity and were weighed twice weekly. Tumor size was evaluated twice per week by caliper measurements using the following formula: tumor volume = length × width^2 × 0.52. When tumors reached 200–300 mm^3 mice were randomized into two groups with at least 10 tumors per group. Mice were then treated for 14–28 days (until control tumor volume reach ∼1500 mm^3) with either vehicle control (0.5% methylcellulose), or PF-3758309 (25 mg/kg) twice daily by oral gavage.
Human tumor xenograft models were used to evaluate the efficacy of PF-309 in vivo. Eleven different CRC cell line tumor xenografts were treated with 25 mg/kg PF-309 twice daily by oral gavage for 14–28 days (until control tumor volumes reached ∼1500 mm^3). Tumor volumes were measured throughout the study and the % growth inhibition was calculated from the average end of study tumor volumes by:
% Growth Inhibition= (average control volume−average treated volume)/average control volume×100%

[1] = End of study tumor and plasma concentrations (LC/MS/MS); type: in vivo, mice; settings: for Plasma concentration / Tumor concentration / Tumor: plasma ratio / concentration at 1 h / Kp at 1 h: end of study, 1 h post treatment, individual animals; for Plasma concentration / Tumor concentration / concentration at 1 h: 25 mg/kg PO BID; for concentration at 1 h: po; for Kp at 1 h: tumor and plasma, read-out: Tumor: plasma ratio
Experimental: Plasma and tumor samples were collected 1 h post treatment at the end of therapeutic studies or 6 h post treatment for P-gp tumor concentration studies. PF-309 was measured in mouse plasma and tumor tissue using a validated LC/MS/MS assay carried out by the University of Colorado Cancer Center Pharmacology Shared Resource. Positive ion electrospray ionization (ESI) mass spectra were obtained with a 3200 QTrap triple quadrupole mass spectrometer (Applied Biosystems Inc., Foster City, CA, USA) with a turboionspray source interfaced to an Agilent 1200 Series binary HPLC system (Agilent Technologies Inc., Santa Clara, CA, USA), and a HTC-PAL auto-sampler (LEAP Technologies, Carrboro, NC, USA). Samples were chromatographed with a Waters Sunfire 2.5 μm C18 column (4.6 × 50 mm; Waters Corp., Milford, MA, USA) with a Phenomenex C18 filter frit guard cartridge (Phenomenex, Torrance, CA, USA). The LC elution was done with a gradient starting at 10% Acetonitrile with 0.1% formic acid:90% 0.1% formic acid held for 1.5 min followed by a 1-min linear gradient to 98% Acetonitrile with 0.1% formic acid: 2% 0.1% formic acid at a flow rate of 750 μl/min and a sample volume of 50 μl. The total analysis time was 5.5 min.
The mass spectrometer settings were: source temperature, 600°C, ion spray voltage, 4500 V, source gas, 50, curtain gas (CUR), 10, collision gas (CAD), low, and needle position 3. Transition specific parameters used were 491.2 → 284.2/491.2 → 148.3/372.2 → 176.1: declustering potential (DP), 46.32/46.54/56.86 V, exit potential (EP), 6.45/3.23/4.08 V, collision cell entrance potential (CEP), 25.92/27.80/20.56 V, collision energy (CE), 40.00/53.10/32.75 V, collision cell exit potential (CXP), 0.42/1.47/2.72 V. Samples were quantified by the internal standard reference method in the MRM mode by monitoring for PF-3758309 transitions of m/z 491.2 → 284.2 and 491.2 → 148.3, and for the internal standard (trazodone) of m/z 372.2 → 176.1. Unknown, standard and quality control samples were extracted from mouse plasma or tumor homogenates (100 mg/ml) by the sequential addition of 5 μl 500 ng/ml internal standard (trazodone), 250 μl acetonitrile:methanol (3:1) to 50 μl plasma/tumor homogenate. Samples were then vortexed for 5 min followed by centrifugation for 10 min at 17,000 rpm. 200 μl of supernatant was then transferred to a microcentrifuge tube followed by the addition of 400 μl 0.1% formic acid followed by vortexing (5 min) and centrifugation (5 min at 13,300 rpm) and the supernatant collected (600 μl) and transferred to auto-sampler vials. The average accuracy and precision based on analysis of quality control samples was 93.1 and 98.7% for plasma samples (range: 1–2500 ng/mL) and 91.9 and 98.2% for tumor (range: 5–5000 ng/mL).
In addition to the cell line xenografts, we also treated 12 different patient derived tumor xenograft (PDTX) CRC models with PF-309 (Figure 6). We were unable to assess how ABCB1 gene expression correlated with efficacy in these models. The PDTX models are propagated in vivo, are not immortalized, and are not grown in in vitro culture. Therefore, we have observed some changes in ABCB1 gene expression in some of our models over time and the direction of the change is not consistent (data not shown). In lieu of analyzing gene expression profiles, we sought to determine if tumor concentration correlated with in vivo response. Tumor and plasma sample pairs were collected from animals at the end of study for eight tumor models (three cell line xenografts and five PDTX models) and concentrations of PF-309 were measured. […] Significant correlations (p < 0.003) were found between both tumor concentration and response and tumor to plasma ratios and response (Table 3).

**Q.** What does the source list for `Cc1nc(Nc2n[nH]c3c2CN(C(=O)N[C@H](CN(C)C)c2ccccc2)C3(C)C)c2sccc2n1` [PF-309]?
**A.** % Growth inhibition (SW48 cell line xenograft): 45%; Plasma concentration ([1]; CUCRC006 model, 25 mg/kg): 24.4 ng/mL; Tumor concentration ([1]; CUCRC006 model, 25 mg/kg): 3.4 ng/g; Tumor: plasma ratio ([1]; CUCRC006 model): 0.14; Plasma concentration ([1]; CUCRC026 model, 25 mg/kg): 25.4 ng/mL and 114 ng/mL and 69.3 ng/mL and 184 ng/mL; Tumor concentration ([1]; CUCRC026 model, 25 mg/kg): 6.4 ng/g and 14.5 ng/g and 22.7 ng/g and 16.8 ng/g; Tumor: plasma ratio ([1]; CUCRC026 model): 0.25 and 0.13 and 0.33 and 0.09; Plasma concentration ([1]; CUCRC036 model, 25 mg/kg): 40.6 ng/mL and 110 ng/mL and 81.3 ng/mL; Tumor concentration ([1]; CUCRC036 model, 25 mg/kg): 65.7 ng/g and 30.7 ng/g and 47.6 ng/g; Tumor: plasma ratio ([1]; CUCRC036 model): 1.62 and 0.28 and 0.59; Plasma concentration ([1]; CUCRC042 model, 25 mg/kg): 1.17 ng/mL and 4.58 ng/mL; Tumor concentration ([1]; CUCRC042 model, 25 mg/kg): 29.6 ng/g; Tumor: plasma ratio ([1]; CUCRC042 model): 29.8 and 6.46; Plasma concentration ([1]; CUCRC047 model, 25 mg/kg): 98.7 ng/mL; Tumor concentration ([1]; CUCRC047 model, 25 mg/kg): 7.5 ng/g; Tumor: plasma ratio ([1]; CUCRC047 model): 0.08; Plasma concentration ([1]; Colo201 model, 25 mg/kg): 11.7 ng/mL; Tumor concentration ([1]; Colo201 model, 25 mg/kg): 140.4 ng/g and 11.1 ng/g; Tumor: plasma ratio ([1]; Colo201 model): 6.72 and 0.95; Plasma concentration ([1]; GEO model, 25 mg/kg): 5.48 ng/mL and 54.1 ng/mL and 76.6 ng/mL; Tumor concentration ([1]; GEO model, 25 mg/kg): 10.2 ng/g and 15.9 ng/g and 22.9 ng/g; Tumor: plasma ratio ([1]; GEO model): 1.9 and 0.3; Plasma concentration ([1]; HCT15 model, 25 mg/kg): 10.0 ng/mL and 13.2 ng/mL and 49.0 ng/mL; Tumor concentration ([1]; HCT15 model, 25 mg/kg): 8.9 ng/g and 8.0 ng/g; Tumor: plasma ratio ([1]; HCT15 model): 0.68 and 0.67 and 0.16; Cmax ([1]; mouse, plasma, oral, 25 mg/kg, mice, Cmax (1 h), read-out: total plasma concentrations at the Cmax): 10 to 100 nM; concentration at 1 h ([1]; mouse, plasma, 25 mg/kg, CUCRC006 model, read-out: Plasma concentration): 42.4 ng/mL; concentration at 1 h ([1]; mouse, plasma, 25 mg/kg, CUCRC047 model, read-out: Plasma concentration): 110 ng/mL; concentration at 1 h ([1]; mouse, plasma, 25 mg/kg, Colo201 model, read-out: Plasma concentration): 20.9 ng/mL; Kp at 1 h ([1]; mouse, oral, 25 mg/kg, CUCRC006 model): 0.08; Kp at 1 h ([1]; mouse, oral, 25 mg/kg, CUCRC047 model): 0.04; concentration at 1 h ([1]; mouse, tumor, 25 mg/kg, CUCRC006 model, read-out: Tumor concentration): 3.6 ng/g; concentration at 1 h ([1]; mouse, tumor, 25 mg/kg, CUCRC042 model, read-out: Tumor concentration): 34.8 ng/g; concentration at 1 h ([1]; mouse, tumor, 25 mg/kg, CUCRC047 model, read-out: Tumor concentration): 4.4 ng/g; concentration at 1 h ([1]; mouse, tumor, 25 mg/kg, HCT15 model, read-out: Tumor concentration): 6.8 ng/g
